The supplement of paper PMC10307832

How the values were obtained:
Assay in all cases: relative viability (nuclei count vs DMSO), 5 days (fraction); higher = more cells survive
Masitinib + Pemetrexed = compound: Cc1ccc(NC(=O)c2ccc(CN3CCN(C)CC3)cc2)cc1Nc1nc(-c2cccnc2)cs1 [Masitinib] + Nc1nc2[nH]cc(CCc3ccc(C(=O)N[C@@H](CCC(=O)O)C(=O)O)cc3)c2c(=O)[nH]1 [Pemetrexed] (partner 0.2 µM)
In short: (§1)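 Five library-drug doses in √10 steps were combined with a fixed anchor-drug dose, or a single drug was given alone, by pin tool to lung cancer cell lines in 1536-well plates the day after seeding. Nuclei were stained and counted after 5 days. Relative viability is the nuclei count in treated wells over that in vehicle wells, taken as the median of duplicate plates.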

Masitinib + Foretinib = compound: Cc1ccc(NC(=O)c2ccc(CN3CCN(C)CC3)cc2)cc1Nc1nc(-c2cccnc2)cs1 [Masitinib] + COc1cc2c(Oc3ccc(NC(=O)C4(C(=O)Nc5ccc(F)cc5)CC4)cc3F)ccnc2cc1OCCCN1CCOCC1 [Foretinib] (partner 0.25 µM)
In short: as §1

Masitinib + Phenformin = compound: Cc1ccc(NC(=O)c2ccc(CN3CCN(C)CC3)cc2)cc1Nc1nc(-c2cccnc2)cs1 [Masitinib] + N=C(N)NC(=N)NCCc1ccccc1 [Phenformin] (partner 250 µM)
In short: as §1

[1] = compound: CC1=CC(=CC=C1)NC2=NC(=CS2)C3=CC=NC=C3 + CS(=O)(=O)N1CCN(Cc2cc3nc(-c4cccc5[nH]ncc45)nc(N4CCOCC4)c3s2)CC1 [Pictilisib] (partner 1 µM)
In short: as §1

Cell Line: UMC-11
- relative viability (Masitinib + Pemetrexed; first compound 0.01 µM): 0.755
- relative viability (Masitinib + Pemetrexed; first compound 0.03162 µM): 0.751
- relative viability (Masitinib + Pemetrexed; first compound 0.1 µM): 0.783
- relative viability (Masitinib + Pemetrexed; first compound 0.3162 µM): 0.813
- relative viability (Masitinib + Pemetrexed; first compound 1 µM): 0.882
- relative viability (Masitinib + Foretinib; first compound 0.03162 µM): 0.951
- relative viability (Masitinib + Foretinib; first compound 0.1 µM): 1.12
- relative viability (Masitinib + Foretinib; first compound 0.3162 µM): 1.17
- relative viability (Masitinib + Foretinib; first compound 1 µM): 1.15
- relative viability (Masitinib + Phenformin; first compound 0.03162 µM): 0.331
- relative viability (Masitinib + Phenformin; first compound 0.1 µM): 0.363
- relative viability (Masitinib + Phenformin; first compound 0.3162 µM): 0.377
- relative viability (Masitinib + Phenformin; first compound 1 µM): 0.338
- relative viability ([1]; first compound 0.08 µM): 0.757
- relative viability ([1]; first compound 0.253 µM): 0.746
- relative viability ([1]; first compound 0.8 µM): 0.729
- relative viability ([1]; first compound 2.53 µM): 0.761
- relative viability ([1]; first compound 8 µM): 0.824
